Results from US20170335402A1, “DOT1L INHIBITORS AND USES THEREOF” (Baylor College of Medicine, priority 2014, published 2017).
“Also recorded” adds a separate entry of the source.

Experiments:
MEIS1 and HOXB3 = assay: qRT-PCR of MEIS1 and HOXB3 in OCI AML3 xenograft tumors; assay type: in vivo, nude rat; conditions: 21 days
Protocol: (§1) In vivo studies were conducted. Human acute myeloid leukemia cells OCI-AML3 were implanted subcutaneously into the right flank of female athymic nude rats (Hsd:RH-Foxn1rnu, Harlan Laboratories, Inc.). EPZ-5676 was delivered by continuous IV infusion via a catheter surgically implanted in the femoral vein of each rat. Animals were separated into either an efficacy or PK/PD cohort. Both cohorts were dosed by continuous IV infusion with 35 or 70 mg/kg/day. A control group received continuous IV infusion of the vehicle, 5% hydroxypropyl-β-cyclodextrin (HPBCD) in saline. Efficacy was determined after 21 days of drug treatment followed by a 7 day drug holiday. Animals assessed for PK/PD were dosed for 14 days and euthanized following the completion of infusion. All rats were weighed and tumors calipered twice weekly until the end of study. At the completion of the study animals were euthanized by terminal cardiac puncture under isoflurane anesthesia. Euthanized rats were sampled for tumor tissue. Tumors were collected in an RNase-free environment, bisected, snap frozen in liquid nitrogen, pulverized and finally stored at (−80° C.).
For the isolation of RNA, 10 mg of tumor powder was lysed in 600 μL RLT Lysis Buffer (Qiagen) and homogenized with a Qiashredder column (Qiagen, 79656) following the manufacturer's protocol. […] MEIS1 and HOXB3 mRNA levels were assessed and normalized to GAPDH by qRT-PCR.

H3K79me2 = assay: ELISA of H3K79me2 in OCI AML3 xenograft tumors; assay type: in vivo, nude rat
Protocol: as §1, with “Tumors were collected in an RNase-free environment, bisected, snap frozen in liquid nitrogen, pulverized and finally stored at (−80° C.).” left out
For isolation of histones from bone marrow, cells were lysed in 250 μL nuclear extraction buffer (10 mM Tris-HCl, 10 mM MgCl2, 25 mM KCl, 1% Triton X-100, 8.6% Sucrose, plus a Roche protease inhibitor tablet 1836145). […] Histones were quantified using the BCA protein assay (Pierce, 23225). […]

[1] = system: OCI AML3 subcutaneous tumors; assay: Nude rat OCI-AML3 xenograft study, tumor volume; assay type: in vivo; conditions: 21 days
Protocol: as §1

[2] = system: H3K79me2 in OCI AML3 cells; assay: Immunoblot analysis of cellular H3K79 methylation; assay type: cell-based, human
OCI AML2 cells [3] = assay: Annexin V binding (AVB) flow cytometry apoptosis assay; assay type: cell-based, human; conditions: increasing concentrations
Protocol: (§2) For the Annexin V apoptosis assay, 1×10^6 SYC-522-, EPZ004777- or DMSO-treated cells were washed in PBS, resuspended in Ca/HEPES buffer (10 mM HEPES, pH7.4; 140 mM NaCl; 2.5 mM CaCl2) and incubated with Annexin V-APC (BD Pharmingen, San Jose, Calif.) for 30 min then analyzed by flow cytometry.
(§3) Cells were harvested at each re-plating of the cell proliferation assay described above then split for simultaneous analysis of apoptosis, cell cycle, and differentiation. Apoptosis was determined by Annexin V binding (AVB) flow cytometry assay. The harvested cells were re-suspended in 1×AVB buffer, stained with APC-conjugated Annexin V (BD), then analyzed by flow cytometry. For cell cycle analysis, cells were pelleted, washed in PBS with 0.5% bovine serum albumin, then fixed in 70% ice-cold methanol. The fixed cells were then incubated in PBS with 100 μg/mL RNAse (Invitrogen) for 15 minutes in a 37° C. water bath. Propidium iodide (PI) in PBS at a final concentration of 25 μg/mL was then added and the cells were analyzed by flow cytometry. For differentiation, cells were pelleted, and stained with APC-conjugated CD14 then washed and re-suspended in media containing PI to exclude dead cells. All analyses were performed using an LSR II flow cytometer (BD biosciences) and the data were analyzed using FlowJo (TreeStar, V8.8.7).

MV411 cells = assay: as above; assay type: cell-based, human; conditions: MV4-11; dose-dependent, FIG. 4
Protocol: as §2, §3

OCI AML3 cells [4] = assay: as above; assay type: cell-based, human; conditions: increasing concentrations
Protocol: as §2, §3

DNMT3A mutant cells = assay: HOX gene expression in DNMT3A mutant cells (FIG. 10); assay type: cell-based, human; conditions: FIG. 10, day 6 and day 10 of treatment
Protocol: RNA was extracted from OCI AML2 and OCI AML3 cells treated with 3 μM EPZ004777 or DMSO control using RNeasy RNA isolation kit (Qiagen) per manufacturer's protocol. RNA was quantified using Nanodrop instrument and 300-1000 ng (equal quantities for EPZ004777 treated and DMSO controls) of RNA were reverse transcribed using the SuperScript® III First-Strand Synthesis System (Invitrogen). Reverse transcription quantitative PCR was then performed in triplicate using predesigned TaqMan primer and probe sets for HOXA9 (Hs00365956_m1), MEIS1 (Hs01017441_m1), HOXB8 (Hs00256885_m1), HOXB3 (Hs01587922_m1), and GAPDH (Hs02758991_ml) (FAM-MGB; Applied Biosystems) for 30 cycles using an AbiPrism 7900HT (Applied Biosystems). Target gene numbers were normalized to the ribosomal RNA 18s (VIC-MGB; Applied Biosystems) and fold-change determined by the 2^−ΔΔCT equation.

OCI AML2 cells [5] = assay: Cell differentiation analysis, CD14 flow cytometry; assay type: cell-based, human; conditions: dose dependent
Protocol: (§4) Cell differentiation analysis was performed by staining with fluorescently labeled marker for cell differentiation, CD14 followed by flow cytometry. Propidium iodide was added prior to flow cytometry analysis to exclude dead cells.
as §3

OCI AML3 cells [6] = assay: Cell differentiation analysis, CD14 flow cytometry; assay type: cell-based, human; conditions: dose dependent
Protocol: as §4, §3

[7] = system: H3K79me2 in OCI AML2 cells; assay: Immunoblot analysis of cellular H3K79 methylation; assay type: cell-based, human
MV4-11 cells = assay: Cell proliferation and viability assay (trypan blue exclusion); assay type: cell-based, human; conditions: MV4-11 (MLL-rearranged); dose-dependent, FIG. 4
Protocol: (§5) Patient AML cell lines were plated in media and treated with the DOT1L inhibitors SYC-522, EPZ004777 or DMSO control was added at the indicated concentrations. Cells counted, washed and re-plated in fresh compound at equal densities every 3-4 days for 12 days. Cell growth and viability were followed by serial cell counts and trypan blue exclusion staining.
(§6) Exponentially growing cells were plated, in triplicate, in 24-well plates at a density of 2×10^5/mL in a final volume of 1 mL. For dose dependent assays, cells were incubated in increasing concentrations of SYC522 up to 10 μM or EPZ004777 up to 24 μM or DMSO control. For time-dependent assays, cells were incubated in 3 μM EPZ004777 or DMSO control. Every 2-3 days media and compound was replaced and cells were split back to a density of 2×10^5/mL. At each re-plating viable cells number was determined by trypan blue exclusion. Total cell number is expressed as split-adjusted viable cells per mL.

OCI AML2 cells [8] = assay: as above; assay type: cell-based, human; conditions: OCI AML2; escalating doses, 10-14 days
Protocol: as §5, §6

OCI AML3 cells [9] = assay: as above; assay type: cell-based, human; conditions: OCI AML3; escalating doses, 10-14 days
Protocol: as §5, §6

[10] = 35 mg/kg/day continuous IV infusion
[11] = 70 mg/kg/day continuous IV infusion

SMILES	expression of oncogenic genes including MEIS1 and HOXB3 in tumors (MEIS1 and HOXB3; [10])	expression of oncogenic genes including MEIS1 and HOXB3 in tumors (MEIS1 and HOXB3; [11])	H3K79me2 level (H3K79me2; [10])	H3K79me2 level (H3K79me2; [11])	tumor growth (tumor volume) [1, 10]	tumor growth (tumor volume) [1, 11]	cellular H3K79 methylation [2]	induction of apoptosis (Annexin V binding) (OCI AML2 cells [3])	induction of apoptosis (MV411 cells)	induction of apoptosis (Annexin V binding) (OCI AML3 cells [4])	oncogenic HOX gene expression (DNMT3A mutant cells)	terminal differentiation (CD14 staining) (OCI AML2 cells [5])	terminal differentiation (CD14 staining) (OCI AML3 cells [6])	cellular H3K79 methylation [7]	cell proliferation (MV4-11 cells)	cell growth / proliferation (OCI AML2 cells [8])	cell growth / proliferation (OCI AML3 cells [9])
CC(C)N(C[C@H]1O[C@@H](n2cnc3c(N)ncnc32)[C@H](O)[C@@H]1O)[C@H]1C[C@@H](CCc2nc3cc(C(C)(C)C)ccc3[nH]2)C1 [EPZ-5676]	repression of oncogenic genes	repression of oncogenic genes	significant reduction of H3K79me2	significant reduction of H3K79me2	inhibited in a dose dependent fashion	inhibited in a dose dependent fashion reaching statistical significance	–	–	–	–	–	–	–	–	–	–	–
CC(C)N(CCCNC(=O)Nc1ccc(C(C)(C)C)cc1)CC1OC(n2cnc3c(N)ncnc32)C(O)C1O (centres unmarked) [SYC-522]	–	–	–	–	–	–	inhibit H3K79 methylation in a time-dependent manner; also recorded: inhibited in a dose- and time-dependent fashion	induction of apoptosis	induction of apoptosis	induction of apoptosis	repressed in a time-dependent fashion	terminal differentiation	terminal differentiation	inhibit H3K79 methylation in a time-dependent manner; also recorded: inhibited in a dose- and time-dependent fashion	reduction of cell proliferation	decreased proliferation; also recorded: inhibited growth in a dose-dependent fashion	decreased proliferation; also recorded: inhibited growth in a dose-dependent fashion
